{
  "source": "patent US20160158200A1",
  "about": "“Combinations of Hepatitis C Virus Inhibitors” (priority 2013, published 2016)",
  "data": [
    {"system": "HCV genotype-1a variant with glutamine 30 changed to glutamate in the NS5A protein", "format": "cell-based", "conditions": "test compound titrated with BMS-790052 fixed at 200 nM; genotype 1a Q30E replicon", "procedure,_shortened": "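Synergy was assessed by combining several fixed amounts of an NS5A-targeting compound with a titration of the second compound of interest.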", "units": {"Fold-Synergistic 1a (Q30E)": "fold"}, "values": [
      {"smiles": "CC(C)(C)[C@H](NC(=O)C1(C(=O)N2CCC(F)(F)CC2)CC1)c1nc(-c2ccc(-c3ccc(-c4c[nH]c([C@@H](NC(=O)C5(C(=O)N6CCC(F)(F)CC6)CC5)C(C)(C)C)n4)cc3)cc2)c[nH]1", "note": "[Compound P-148]", "Fold-Synergistic 1a (Q30E)": ">100"},
      {"smiles": "CN(C)C(=O)C(=O)N[C@H](c1nc(-c2ccc(-c3ccc(-c4c[nH]c([C@@H](NC(=O)C(=O)N(C)C)C(C)(C)C)n4)cc3)cc2)c[nH]1)C(C)(C)C", "note": "[Compound W-10]", "Fold-Synergistic 1a (Q30E)": ">100"},
      {"smiles": "COc1ccc(CNC(C)(C)C(=O)N[C@H](c2nc(-c3ccc(-c4ccc(-c5c[nH]c([C@@H](NC(=O)C(C)(C)NCc6ccc(OC)cc6)C(C)(C)C)n5)cc4)cc3)c[nH]2)C(C)(C)C)cc1", "note": "[Compound S-267]", "Fold-Synergistic 1a (Q30E)": ">100"},
      {"smiles": "CC(C)[C@H](NC(=O)C(C)(C)Oc1ccc(Cl)cc1)c1ncc(-c2ccc(-c3ccc(-c4cnc([C@@H](NC(=O)C(C)(C)Oc5ccc(Cl)cc5)C(C)C)[nH]4)cc3)cc2)[nH]1", "note": "[Compound P-65]", "Fold-Synergistic 1a (Q30E)": ">100"},
      {"smiles": "CC1(C(=O)N[C@H](c2nc(-c3ccc(-c4ccc(-c5c[nH]c([C@@H](NC(=O)C6(C)CCCCC6)C(C)(C)C)n5)cc4)cc3)c[nH]2)C(C)(C)C)CCCCC1", "note": "[Compound P-47]", "Fold-Synergistic 1a (Q30E)": ">100"},
      {"smiles": "CC(C)(C)OC(=O)N1C2CCC1(C(=O)N[C@H](c1nc(-c3ccc(-c4ccc(-c5c[nH]c([C@@H](NC(=O)C67CCC(CC6)N7C(=O)OC(C)(C)C)C(C)(C)C)n5)cc4)cc3)c[nH]1)C(C)(C)C)CC2", "note": "[Compound W-85]", "Fold-Synergistic 1a (Q30E)": ">100"},
      {"smiles": "CC(C)(C)[C@H](NC(=O)C12CCC(CC1)N2)c1nc(-c2ccc(-c3ccc(-c4c[nH]c([C@@H](NC(=O)C56CCC(CC5)N6)C(C)(C)C)n4)cc3)cc2)c[nH]1.Cl.Cl.Cl.Cl", "note": "[Compound W-92]", "Fold-Synergistic 1a (Q30E)": ">10"},
      {"smiles": "CC(C)(C(=O)N[C@H](c1nc(-c2ccc(-c3ccc(-c4c[nH]c([C@@H](NC(=O)C(C)(C)C(O)c5ccccn5)C(C)(C)C)n4)cc3)cc2)c[nH]1)C(C)(C)C)C(O)c1ccccn1", "note": "(single isomer, unassigned) [Compound N-128B]", "Fold-Synergistic 1a (Q30E)": ">100"},
      {"smiles": "CC(C)CC(=O)N[C@@H](c1nc(-c2ccc(-c3ccc(-c4c[nH]c([C@H](NC(=O)CC(C)C)C(C)C)n4)cc3)cc2)c[nH]1)C(C)C", "note": "[Compound P-54.1]", "Fold-Synergistic 1a (Q30E)": ">100"},
      {"smiles": "CC(C)(C)[C@H](NC(=O)C1CCC(F)(F)CC1)c1nc2c([nH]1)-c1ccc(-c3ccc4c(c3)CCc3nc([C@@H](NC(=O)C5CCC(F)(F)CC5)C(C)(C)C)[nH]c3-4)cc1CC2", "note": "[Compound B23]", "Fold-Synergistic 1a (Q30E)": ">100"},
      {"smiles": "CC1(O)CCC(C(=O)N[C@H](c2nc(-c3ccc(-c4ccc(-c5c[nH]c([C@@H](NC(=O)C6CCC(C)(O)CC6)C(C)(C)C)n5)cc4)cc3)c[nH]2)C(C)(C)C)CC1", "note": "(some centres unmarked) [Compound W-175]", "Fold-Synergistic 1a (Q30E)": ">100"},
      {"smiles": "CC(C)(C)[C@H](NC(=O)CC1CCC(F)(F)CC1)c1nc(-c2ccc(-c3ccc(-c4c[nH]c([C@@H](NC(=O)CC5CCC(F)(F)CC5)C(C)(C)C)n4)cc3)cc2)c[nH]1", "note": "[Compound N-112]", "Fold-Synergistic 1a (Q30E)": ">100"},
      {"smiles": "CC(C)(C)[C@H](NC(=O)C1CC12CCC2)c1nc(-c2ccc(-c3ccc(-c4cnc([C@@H](NC(=O)C5CC56CCC6)C(C)(C)C)[nH]4)cc3)cc2)c[nH]1", "note": "(some centres unmarked) [Compound B-183]", "Fold-Synergistic 1a (Q30E)": ">100"},
      {"smiles": "O=C(c1cccc(Oc2ccccc2)c1)N1CCC[C@H]1c1ncc(-c2ccc(-c3ccc(-c4cnc([C@@H]5CCCN5C(=O)c5cccc(Oc6ccccc6)c5)[nH]4)cc3)cc2)[nH]1", "note": "[Compound S-116]", "Fold-Synergistic 1a (Q30E)": "<10"},
      {"smiles": "CC(C)[C@H](NC(=O)OC(C)(C)C)c1ncc(-c2ccc(-c3ccc(-c4cnc([C@@H](NC(=O)OC(C)(C)C)C(C)(C)C)[nH]4)cc3)cc2)[nH]1", "note": "[Compound Y-40]", "Fold-Synergistic 1a (Q30E)": ">100"},
      {"smiles": "CC1(C)CC(C(=O)NC(c2nc(-c3ccc(-c4ccc(-c5c[nH]c(C(NC(=O)C6CC(C)(C)C6)C(C)(C)C)n5)cc4)cc3)c[nH]2)C(C)(C)C)C1", "note": "[Compound L-53]", "Fold-Synergistic 1a (Q30E)": ">100"},
      {"smiles": "CC(=O)c1ccc2cc3cc(-c4cnc([C@@H](NC(=O)C5CCC(F)(F)CC5)C(C)(C)C)[nH]4)ccc3cc2c1", "note": "[Compound B28]", "Fold-Synergistic 1a (Q30E)": ">100"},
      {"smiles": "CC(C)[C@H](NC(=O)[C@@]1(C)CCC(F)(F)CO1)c1nc(-c2ccc3c(c2)CCc2cc(-c4c[nH]c([C@@H](NC(=O)[C@@]5(C)CCC(F)(F)CO5)C(C)C)n4)ccc2-3)c[nH]1", "note": "[Compound N-131]", "Fold-Synergistic 1a (Q30E)": ">100"},
      {"smiles": "CC(C)(C(=O)N[C@H](c1nc(-c2ccc(-c3ccc(-c4c[nH]c([C@@H](NC(=O)C(C)(C)C(O)C5CCC(F)(F)CC5)C(C)(C)C)n4)cc3)cc2)c[nH]1)C(C)(C)C)C(O)C1CCC(F)(F)CC1", "note": "(single isomer, unassigned) [Compound N-143B]", "Fold-Synergistic 1a (Q30E)": ">100"},
      {"smiles": "CC(C)[C@H](NC(=O)C1CCC(F)(F)CC1)c1ncc(-c2ccc(-c3ccc(-c4cnc([C@@H](NC(=O)C5CCC(F)(F)CC5)C(C)C)[nH]4)cc3)cc2)[nH]1", "note": "[Compound P-79]", "Fold-Synergistic 1a (Q30E)": ">100"},
      {"smiles": "CC(C)[C@H](NC(=O)C12CC3CC(CC(C3)C1)C2)c1ncc(-c2ccc(-c3ccc(-c4cnc([C@@H](NC(=O)C56CC7CC(CC(C7)C5)C6)C(C)C)[nH]4)cc3)cc2)[nH]1", "note": "[Compound P-60]", "Fold-Synergistic 1a (Q30E)": ">100"},
      {"smiles": "CC(C)C(NC(=O)C1(C)CCC(F)(F)CO1)c1ncc(-c2ccc(-c3ccc(-c4cnc(C(NC(=O)C5(C)CCC(F)(F)CO5)C(C)C)n4C)cc3)cc2)n1C", "note": "(centres unmarked) [Compound B-201]", "Fold-Synergistic 1a (Q30E)": ">10"},
      {"smiles": "CC(C)(C)OC(=O)N1C(C(=O)NC(c2nc(-c3ccc(-c4ccc(-c5c[nH]c(C(NC(=O)C6COC(C)(C)N6C(=O)OC(C)(C)C)C(C)(C)C)n5)cc4)cc3)c[nH]2)C(C)(C)C)COC1(C)C", "note": "[Compound L-55]", "Fold-Synergistic 1a (Q30E)": ">100"},
      {"smiles": "CC(C)(C(=O)N[C@H](c1nc(-c2ccc(-c3ccc(-c4cnc([C@@H](NC(=O)C(C)(C)C5CCCO5)C(C)(C)C)[nH]4)cc3)cc2)c[nH]1)C(C)(C)C)C1CCCO1", "note": "(single isomer, unassigned) [Compound B170]", "Fold-Synergistic 1a (Q30E)": ">100"},
      {"smiles": "CC(O)C(C)(C)C(=O)N[C@H](c1ncc(-c2ccc(-c3ccc(-c4cnc([C@@H](NC(=O)C(C)(C)C(C)O)C(C)(C)C)[nH]4)cc3)cc2)[nH]1)C(C)(C)C", "note": "(single isomer, unassigned) [Compound B76]", "Fold-Synergistic 1a (Q30E)": ">100"},
      {"smiles": "CC(C)[C@H](NC(=O)N1CCOCC1)c1ncc(-c2ccc(-c3ccc(-c4cnc([C@@H](NC(=O)N5CCOCC5)C(C)C)[nH]4)cc3)cc2)[nH]1", "note": "[Compound S-231]", "Fold-Synergistic 1a (Q30E)": ">10"},
      {"smiles": "CC(C)(C)[C@H](NC(=O)C1CCC(F)(F)CC1)c1nc2ccc(-c3ccc(-c4ccc5nc([C@@H](NC(=O)C6CCC(F)(F)CC6)C(C)(C)C)[nH]c5c4)cc3)cc2[nH]1", "note": "[Compound B32]", "Fold-Synergistic 1a (Q30E)": ">100"},
      {"smiles": "CC(C)[C@H](NC(=O)[C@H](NC(=O)OCC(C)(C)C)C(C)C)c1ncc(-c2ccc(-c3ccc(-c4cnc([C@@H](NC(=O)[C@H](NC(=O)OCC(C)(C)C)C(C)C)C(C)C)[nH]4)cc3)cc2)[nH]1", "note": "[Compound S-253]", "Fold-Synergistic 1a (Q30E)": ">100"},
      {"smiles": "CC1([C@H](NC(=O)C2CCC(F)(F)CC2)c2ncc(-c3ccc(-c4ccc(-c5cnc([C@@H](NC(=O)C6CCC(F)(F)CC6)C6(C)CCC6)[nH]5)cc4)cc3)[nH]2)CCC1", "note": "[Compound Y-38]", "Fold-Synergistic 1a (Q30E)": ">100"}
    ]}
  ]
}
